Results on two compounds are retold here after patent publication US11059820B2, “Crystalline forms of seletalisib” (UCB BIOPHARMA SPRL, priority 2017, dated 2021).

Molecules are shown by their SMILES.

Format in all cases: physicochemical
Series [1] can be described thus: Thermodynamic stability: crystals suspended for 30 days in solvent/water mixtures of desired water activity. An excerpt: (§1) The thermodynamic stability was checked by suspending crystals of Form B for 30 days in appropriate solvent/water mixtures, thus creating environments with the desired water activity. As water activity is equivalent to relative humidity (e.g. 60% RH=water activity 0.6), and due to the more rapid exchange of molecules between the crystals and the saturated solution in the suspension, this approach gives the possibility to observe the equilibrium condition of the solid form. […] Kinetic stability was checked by exposing solid, powdery samples to air at selected temperature and relative humidity.
(§2) The thermodynamic stability was checked by suspending crystals of Form F for 30 days in appropriate solvent/water mixtures, as explained above for Form B crystals.

The nature of series [2]: Kinetic stability: solid, powdery samples exposed to air at selected temperature and relative humidity. The following applies: 7 weeks, solid powder exposed to air.
Source text: as §1, §2

A short description of series [3]: Dynamic Vapor Sorption (DVS). The following applies: 25° C. The procedure: Two different types of DVS equipment were used, where the sample weight uptake is plotted against the relative humidity over the sample: • SMS DVS controlled by the software DVS Win. The sample temperature is maintained at 25° C. The weight change of the sample as a function of % RH (relative humidity expressed as a percentage) was monitored by the microbalance. The sample was placed on a glass pan attached to the microbalance. A moisture cycle was performed from 30 to 90 to 0 to 30% RH at 25° C. (dm/dt 0.002 with a scanning step 10%). • Projekt Messtechnik Sorptions Prüfsystem SPS 11-100n or Surface Measurement Systems DVS-1; the sample was placed on an aluminium (SPS 11) or platinum (DVS-1) holder on top of the microbalance and conditioned at 25% RH and 25° C. A moisture cycle was performed from 25 to 95 to 0 to 25% RH at 5% RH per hour at 25° C.

In the case of `[O-][n+]1cccc(-c2nc3c(Cl)cccc3cc2[C@@H](Nc2ncnc3cccnc23)C(F)(F)F)c1` [Form B, N-{(R)-1-[8-Chloro-2-(1-oxypyridin-3-yl)quinolin-3-yl]-2,2,2-trifluoroethyl}pyrido[3,2-d]pyrimidin-4-ylamine, Crystal Form B (Hydrate)], the “thermodynamic stability under ICH conditions” value in series [1] (25° C./60% RH, (Hydrate)) is reported as “thermodynamically stable”; in series [1] (40° C./75% RH, (Hydrate)), “thermodynamically stable”. In addition, the kinetic stability entry in series [2] (25° C./60% RH) and in series [2] (40° C./75% RH) was “kinetically stable” in each case. Further, the continuous water uptake in series [3] (from 25% RH to 95% RH) is reported as roughly 2.4 % weight. For the same compound, in series [3] (second part of the cycle (95% RH to 0% RH), at low RH), the stepwise mass loss stood at 3.3 % weight. Further, the stepwise water uptake in series [3] (third part of the cycle (0% RH to 25% RH)) amounted to 3.6%.
Regarding `[O-][n+]1cccc(-c2nc3c(Cl)cccc3cc2[C@@H](Nc2ncnc3cccnc23)C(F)(F)F)c1` [Form F, N-{(R)-1-[8-Chloro-2-(1-oxypyridin-3-yl)quinolin-3-yl]-2,2,2-trifluoroethyl}pyrido[3,2-d]pyrimidin-4-ylamine, Crystal Form F], the “thermodynamic stability under ICH conditions” value in series [1] (25° C./60% RH) and in series [1] (40° C./75% RH) was “not to be thermodynamically stable” each time. This compound had a limited water uptake in series [3] (observed from 70% RH onwards) of 1%. Also, the “hygroscopic behaviour (DVS)” value in series [3] (variable relative humidity) is listed as “non-hygroscopic”.
